Experimental data taken from patent US10350210B2, “EGFR and ALK dual inhibitor” (PRECEDO PHARMACEUTICALS CO., LTD, priority 2015, dated 2019).

Key:
BaF3-TEL-EGFR-T790M = assay: Cell growth (Cell Titer-Glo viability), BaF3-TEL-EGFR-T790M; format: cell-based; conditions: Mus musculus; BaF3-TEL-EGFR-T790M (EGFR T790M mutant kinase), 72 hrs
Outline: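 Proliferation assay: IL-3-independent BaF3 lines stably expressing TEL-fused human kinase (retroviral MSCV-Puro), plus EGFR-mutant NSCLC lines (HCC827 del19, NCI-H3255 L858R). Read-out: CellTiter-Glo luminescence of viable cells.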

BaF3-TEL-EGFR-L858R = assay: Cell growth (Cell Titer-Glo viability), BaF3-TEL-EGFR-L858R; format: cell-based; conditions: Mus musculus; BaF3-TEL-EGFR-L858R (EGFR L858R mutant kinase), 72 hrs
Procedure: By testing the effect of the novel kinase inhibitors on the proliferation of cancer cells, the selectivity of the compounds of the present disclosure in inhibiting the proliferation of cancer cells was further assessed. […]
The number of viable cells was determined quantitatively by a microplate reader using Cell Titer-Glo® (Promega, US) chemiluminescence cell viability assay kit.

[1] = tested on: EGFR protein (EGFR L858R, H3255); assay: Effect on signaling pathway in cells, H3255; format: cell-based; conditions: 4 h
Description: In four cell lines (all purchased from ATCC) including non-small cell lung cancer cell line A549 (expressing wild-type EGFR gene), non-small cell lung cancer cell line H1975 (expressing EGFR L858R/T790M double mutant gene), non-small cell lung cancer cell line H3255 (expressing EGFR L858R mutant gene) and non-small cell lung cancer cell line PC-9 (expressing EGFR delE746_A750 mutant gene), the effect of Compound 1 on EGFR or other protein kinases related to signaling pathways of EGFR such as Stat3, AKT, ErK, eIF4E, 4EBP1, P70S6K was assessed by assaying a number of cellular biochemical and functional endpoints. […] The effect of Compound 1 on phosphorylation of Stat3Y705, AKT T308, AKT 5473, Erk T202/204, EGFR Y1068, P70S6K Thr389, eIF4E Ser209, Erk T202/204, 4EBP1 (Thr37/46) in these cell lines was assayed (FIGS. 1a to 1d).

[2] = tested on: non-small cell lung cancer cell H1975 subcutaneous tumors; assay: Mouse tumor model of non-small cell lung cancer cell H1975; format: in vivo; conditions: for tumor inhibition rate: Bal b/c mice
Procedure: Similarly, 27 Bal b/c female mice, 4-6 weeks old, were purchased from Shanghai SLAC Laboratory Animal Co., Ltd., and maintained in an SPF laboratory. Drinking water and bedding were both sterilized by autoclaving. All operations involving the mice were performed under aseptic conditions. At day 0, 5×10^6 non-small cell lung cancer cells H1975 (purchased from ATCC) were injected subcutaneously into the left flank of all mice. At day 15, all mice were divided into three groups (9 mice per group), and the first group of mice were orally administered with methyl cellulose (HKI) solvent, the second group of mice were orally administered with Compound 1 at a dose of 25 mg/kg mouse weight, and the third group of mice were orally administered with Compound 1 at a dose of 50 mg/kg mouse weight daily. Starting from the administration, the length/width of the subcutaneous tumor was measured daily with a vernier caliper, and the weight of the mice was recorded daily to observe the effect of Compound 1 on the body weight of the mice. The mice were sacrificed at day 36 and the subcutaneous tumors were collected. The tumors were weighed, and then the tumor tissues were used to prepare protein lysates for use. The growth trend of the subcutaneous tumor within 16-36 days was plotted, wherein the tumor volume was calculated as length×width×width/2 mm^3.

NCI-H3122 = assay: Growth of cancer cells (Cell Titer-Glo viability), NCI-H3122; format: cell-based; conditions: Homo sapiens; NCI-H3122 (expressing ALK gene), 72 hrs; read-out: GI50

Which GI50 (BaF3-TEL-EGFR-T790M) does the source give for `C=CC(=O)Nc1cc(Nc2ncc(Cl)c(Nc3ccccc3S(=O)(=O)C(C)C)n2)c(OC)cc1N1CCN(CC)CC1` [Compound 1, N-(5-(5-chloro-4-(2-(isopropylsulfonyl)phenylamino)pyrimidin-2-ylamino)-2-(4-ethylpiperazin-1-yl)-4-methoxyphenyl)acrylamide] here?
Its GI50 is 32 nM.

What about the GI50 (BaF3-TEL-EGFR-L858R) of the same molecule?
Its GI50 is under 3 nM.

What about the “concentration able to significantly inhibit the phosphorylation of EGFR protein (also affects AKT and ERK phosphorylation)” value [1] of the same molecule?
Its value is 0.3 µM.

And the tumor inhibition rate ([2]; oral daily 25 mg/kg, on the second day of administration)?
The tumor inhibition rate was 70%.

What about the tumor inhibition rate ([2]; oral daily 50 mg/kg, after 8 days of administration) of the same molecule?
Its tumor inhibition rate is 81.7%.

What about the “body weight of the mice” value ([2]; oral daily 25 mg/kg) of the same molecule?
Its value is “did not decrease”.

And the “body weight of the mice” value ([2]; oral daily 50 mg/kg)?
The value was “did not decrease”.

`C=CC(=O)Nc1cc(Nc2ncc(Cl)c(Nc3ccccc3S(=O)(=O)C(C)C)n2)c(OC)cc1N1CCCN(C)CC1` [Compound 10, N-(5-(5-chloro-4-(2-(isopropylsulfonyl)phenylamino)pyrimidin-2-ylamino)-4-methoxy-2-(4-methyl-1,4-homopiperazin-1-yl)phenyl)acrylamide] was tested. Which GI50 (NCI-H3122) did it give?
The GI50 was under 0.3 nM.
